Data from US11440904B2, “Substituted pyrimidines, pharmaceutical compositions and therapeutic methods thereof” (priority 2017, dated 2022).

Tests used:
[1] = test system: EOL-1 cells; assay: Cancer cell growth inhibition, EOL-1; format: cell-based; conditions: Homo sapiens, EOL1, 72 hr, cell viability
Description: (§1) In order to test certain compounds of Compounds 1 to 24 for cancer cell growth inhibition, a leukemia cancer cell line EOL-1, and triple negative breast cancer cell line MDA-MB-231 was used.
(§2) EOL-1 and MDA-MB-231 cells were cultured in a RPMI-1640 cell culture medium supplemented with 10% fetal bovine serum (FBS) and 1% penicillin/streptomycin (Gibco BRL).
(§3) The cancer cell lines stored in a liquid nitrogen tank were each quickly thawed at 37° C. water bath, and centrifuged to remove the DMSO in the freezing medium. The resulting cell pellet was mixed with a culture medium, incubated in a culture flask at 37° C. under 5% CO2 for 2 to 3 days. The EOL-1 cells were sub-cultured by 1:5˜10 dilution in fresh culture medium. For MD-MB-231 cells, the culture medium was removed and the remaining cells were washed with PBS (Phosphate Buffered Saline) and trypsinized by trypsin-EDTA. The detached cells were sub-cultured by 1:5˜10 dilution in fresh culture medium.
(§4) For the cell growth inhibition assay, the cells were seeded in 96-well cell culture plates at 5×10^4 cells/well for EOL-1 and 5×10^3 cells/well for MDA-MB-231 cells in 50 μL and incubated at 37° C. under 5% CO2 for 3 to 6 hr. before the compounds were added.
(§5) Certain compounds of Compounds 1-24 were dissolved in dimethylsulfoxide (DMSO) to a concentration of 10 mM. The DMSO solution containing test compound was diluted with a culture medium to a final concentration of 600 μM, and then diluted 100 times to 6 μM as top dose followed by 1:3 serial dilutions, and then add 50 μL diluted compounds to the 50 μL cells, with a final top dose at 3 μM and the plate was incubated at 37° C. under 5% CO2 for 72 hr. The cell viability was determined by Cell Meter™ Fluorimetric Cell Cytotoxicity Assay Kit (AAT Bioquest) according to the manufacturer's instructions. Briefly, thaw and warm up the Assay Solution (Component A) to 37° C., and mix it thoroughly. Add 20 μL/well (96-well plate) of Assay Solution (Component A). Mix the reagents by shaking the plate gently for 30 seconds. Incubate the cells in a 37° C., 5% CO2 incubator for 1-24 hr., protected from light. Monitor the fluorescence intensity (bottom read) at Ex/Em=540/590 nm. Alternatively, read the O.D. at 570 nm (the reference wavelength should be 600 nm) to determine the cell viability in each well.

[2] = test system: MDA-MB-231 cells; assay: Cancer cell growth inhibition, MDA-MB-231; format: cell-based; conditions: Homo sapiens, 72 hr, cell viability
Description: as §1, §2, §3, §4, §5

[3] = target: BTK phosphorylation at tyrosine 223 (Homo sapiens (Human), UniProt Q06187); assay: Immunoblot analysis of phospho-BTK(Y223) in Ramos cells; format: cell-based; conditions: 1 hr treatment, anti-IgM stimulation, western blot
BTK phosphorylation at tyrosine 223, sequence (Q06187 whole entry): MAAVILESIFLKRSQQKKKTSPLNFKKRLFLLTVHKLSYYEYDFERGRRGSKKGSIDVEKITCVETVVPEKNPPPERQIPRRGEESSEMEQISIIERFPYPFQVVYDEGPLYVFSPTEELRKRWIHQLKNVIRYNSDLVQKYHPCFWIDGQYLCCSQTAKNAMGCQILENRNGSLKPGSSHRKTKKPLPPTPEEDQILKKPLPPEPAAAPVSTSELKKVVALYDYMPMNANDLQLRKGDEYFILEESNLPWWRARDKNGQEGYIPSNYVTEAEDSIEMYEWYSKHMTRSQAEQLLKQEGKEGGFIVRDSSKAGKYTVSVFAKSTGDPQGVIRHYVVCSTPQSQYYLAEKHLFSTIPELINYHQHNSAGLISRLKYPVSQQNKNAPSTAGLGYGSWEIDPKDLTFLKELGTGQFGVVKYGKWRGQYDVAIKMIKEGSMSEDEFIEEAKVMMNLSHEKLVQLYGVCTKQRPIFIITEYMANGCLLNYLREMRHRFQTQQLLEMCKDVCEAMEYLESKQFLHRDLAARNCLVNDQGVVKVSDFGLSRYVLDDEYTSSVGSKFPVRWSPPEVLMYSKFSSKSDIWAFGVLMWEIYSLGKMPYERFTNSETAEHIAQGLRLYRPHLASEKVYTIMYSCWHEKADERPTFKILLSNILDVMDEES
Description: Ramos cells were cultured in RPMI-1640 medium with 10% fetal bovine serum (FBS) and 1% penicillin/streptomycin (Gibco BRL). Before the assay, Ramos cells were counted and seeded at 1×10^6 cells/mL, cultured overnight in RPMI-1640 medium with 10% FBS, the cells were centrifuged at 950 rpm for 10 min., then 1˜2×10^6 cells were split into each tube in 300 μL medium. The cells were treated with certain compounds of Compound 1-24 at 0˜3 μM for 1 hr. in 37° C., then the cells were stimulated with 10 μg/mL of anti-IgM (BioLegend) for 5 min., followed by 3 min. spin at 2000 rpm. After aspirating the supernatant, 60 μL of RIPA lysis buffer (50 mM Tris-HCl, 1 mM EDTA, 1% NP-40, 0.5% sodium deoxycholate, and 0.1% SDS, pH 7.4, 150 mM NaCl, 1 mM Na3VO4) was added to the cell pellet to lyse the cells on ice for 30 min. After spin at 10,000 rpm for 5 min., 60 μL of the cell lysate was transferred to a fresh tube, and 20 μL of 4× LDS buffer was added to the tube. The samples were boiled on a 100° C. heat block for 10 min. 25 μL lysate was loaded on to SDS-PAGE gel (NuPAGE™ Novex™ 4-12% Bis-Tris Midi Protein Gels, cat. no. WG1402BOX, ThermoFisher) for western blotting analysis per the manufacturer's instructions. Antibodies used for immunoblot analysis include Btk and p-Btk(Y223) (cat. no. 3553 and 5082; Cell Signaling Technology, Beverly, Mass.). p-Btk(Y223) (cat. no. GTX61791; GeneTex, Inc., Irvine, Calif.). Membranes were detected using infrared fluorescence dye (IRDye® 800CW Donkey anti-Rabbit IgG (H+L), cat. no. P/N 925-32213; IRDye® 680RD Donkey anti-Mouse IgG (H+L), cat. no. P/N 925-68072 and scanned on a LiCor Odyssey scanner (LiCor Biosciences, Lincoln, Nebr.).

[4] = target: EGFR wt (Homo sapiens (Human), UniProt P00533); assay: 33P ATP HotSpot kinase assay, EGFR wt; format: biochemical; conditions: 10 μM ATP
EGFR wt, sequence (P00533 25-1210): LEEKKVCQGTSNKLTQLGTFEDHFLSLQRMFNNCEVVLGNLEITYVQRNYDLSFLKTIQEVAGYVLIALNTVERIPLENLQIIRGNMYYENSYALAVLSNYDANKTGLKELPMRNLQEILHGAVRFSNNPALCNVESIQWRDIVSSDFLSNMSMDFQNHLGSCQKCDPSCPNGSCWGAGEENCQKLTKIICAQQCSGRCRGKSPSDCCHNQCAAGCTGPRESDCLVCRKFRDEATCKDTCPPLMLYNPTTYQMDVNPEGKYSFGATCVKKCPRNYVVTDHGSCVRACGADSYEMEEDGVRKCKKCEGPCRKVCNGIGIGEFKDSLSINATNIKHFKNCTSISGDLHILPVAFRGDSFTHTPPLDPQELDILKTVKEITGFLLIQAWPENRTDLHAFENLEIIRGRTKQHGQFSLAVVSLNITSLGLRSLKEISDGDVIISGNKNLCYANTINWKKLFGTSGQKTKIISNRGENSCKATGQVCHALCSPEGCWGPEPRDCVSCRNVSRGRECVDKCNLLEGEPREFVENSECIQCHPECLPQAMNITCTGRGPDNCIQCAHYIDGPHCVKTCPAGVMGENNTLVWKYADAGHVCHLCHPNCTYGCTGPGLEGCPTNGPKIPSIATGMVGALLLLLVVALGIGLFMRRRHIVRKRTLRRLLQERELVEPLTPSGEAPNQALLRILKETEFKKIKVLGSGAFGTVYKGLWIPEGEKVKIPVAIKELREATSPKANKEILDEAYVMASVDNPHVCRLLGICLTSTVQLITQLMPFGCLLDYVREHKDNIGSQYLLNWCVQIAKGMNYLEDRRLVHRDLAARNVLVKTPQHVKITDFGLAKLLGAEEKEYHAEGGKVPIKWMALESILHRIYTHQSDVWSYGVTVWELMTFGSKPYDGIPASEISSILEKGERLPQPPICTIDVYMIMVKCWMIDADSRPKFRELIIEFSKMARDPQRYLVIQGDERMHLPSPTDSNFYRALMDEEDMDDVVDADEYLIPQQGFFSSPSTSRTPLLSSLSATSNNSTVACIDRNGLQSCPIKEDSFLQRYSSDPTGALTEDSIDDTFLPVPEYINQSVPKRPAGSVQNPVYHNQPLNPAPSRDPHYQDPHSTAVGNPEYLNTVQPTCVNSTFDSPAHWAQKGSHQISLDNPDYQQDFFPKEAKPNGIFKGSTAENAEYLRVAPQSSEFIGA
Description: Then, Kinase assays were performed using the “HotSpot” assay platform.
Briefly, specific kinase/substrate pairs along with required cofactors were prepared in reaction buffer; 20 mM Hepes pH 7.5, 10 mM MgCl2, 1 mM EGTA, 0.02% Brij35, 0.02 mg/ml BSA, 0.1 mM Na3VO4, 2 mM DTT, 1% DMSO. Compounds were delivered into the reaction, followed about 20 minutes later by addition of a mixture of ATP (Sigma, St. Louis Mo.) and ^33P ATP (Perkin Elmer, Waltham Mass.) to a final concentration of 10 μM.
Reactions were carried out at room temperature for 120 min, followed by spotting of the reactions onto P81 ion exchange filter paper (Whatman Inc., Piscataway, N.J.). Unbound phosphate was removed by extensive washing of filters in 0.75% phosphoric acid. […] IC50 values and curve fits were obtained using Prism (GraphPad Software).

[5] = target: FAK (Homo sapiens (Human), UniProt Q05397); assay: 33P ATP HotSpot kinase assay, FAK; conditions: read-out: IC50 FAK, 10 μM ATP
FAK, sequence (Q05397 whole entry): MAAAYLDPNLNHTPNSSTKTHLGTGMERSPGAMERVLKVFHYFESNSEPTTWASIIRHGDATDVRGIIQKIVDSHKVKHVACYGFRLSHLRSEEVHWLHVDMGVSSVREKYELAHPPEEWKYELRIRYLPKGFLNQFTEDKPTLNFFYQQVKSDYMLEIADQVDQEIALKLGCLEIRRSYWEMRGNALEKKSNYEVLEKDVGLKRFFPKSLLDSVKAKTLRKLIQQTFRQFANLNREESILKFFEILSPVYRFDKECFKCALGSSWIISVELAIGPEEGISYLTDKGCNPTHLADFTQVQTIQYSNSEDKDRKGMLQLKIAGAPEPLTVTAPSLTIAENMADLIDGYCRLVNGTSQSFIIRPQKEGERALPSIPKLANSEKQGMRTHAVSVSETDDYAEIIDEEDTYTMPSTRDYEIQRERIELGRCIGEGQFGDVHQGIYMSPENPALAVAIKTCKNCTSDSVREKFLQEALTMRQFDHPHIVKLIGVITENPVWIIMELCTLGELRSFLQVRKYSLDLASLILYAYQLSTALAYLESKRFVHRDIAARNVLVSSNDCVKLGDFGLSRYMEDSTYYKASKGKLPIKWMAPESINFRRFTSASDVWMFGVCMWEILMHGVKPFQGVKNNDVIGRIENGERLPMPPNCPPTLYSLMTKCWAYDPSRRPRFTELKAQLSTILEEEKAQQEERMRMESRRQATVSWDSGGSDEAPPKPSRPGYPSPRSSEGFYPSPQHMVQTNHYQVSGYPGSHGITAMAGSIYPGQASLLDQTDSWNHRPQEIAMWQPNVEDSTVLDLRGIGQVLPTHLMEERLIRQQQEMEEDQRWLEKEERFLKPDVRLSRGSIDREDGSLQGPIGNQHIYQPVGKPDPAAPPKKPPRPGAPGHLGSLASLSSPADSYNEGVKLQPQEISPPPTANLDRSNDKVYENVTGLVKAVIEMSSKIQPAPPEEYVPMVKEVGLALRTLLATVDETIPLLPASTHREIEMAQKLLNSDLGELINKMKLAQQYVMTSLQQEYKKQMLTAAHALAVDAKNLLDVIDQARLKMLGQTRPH

[6] = test system: ERK phosphorylation at T202/Y204; assay: Cell-based ERK1/2 (T202/Y204) phosphorylation ELISA in EOL-1 cells; conditions: 3 hr or 15 hr treatment, read-out: EC50 phospho-ERK1/2 (T202/Y204)
Description: EOL-1 cells were cultured in RPMI-1640 medium with 10% fetal bovine serum (FBS) and 1% penicillin/streptomycin (Gibco BRL). Before the assay, EOL-1 cells were counted and seeded at 1×10^6 cells/well in a 6-well plate, cultured overnight in RPMI-1640 medium with 10% FBS. The cells were treated with certain compounds of Compounds 1-24 at 0˜3 μM for 3 hr. or 15 hr. at 37° C., then the cells were harvested, followed by 5 min. spin at 2000 rpm. After aspirating the supernatant, the cells were washed with cold PBS, span again, then 100 μL of RIPA lysis buffer (50 mM Tris-HCl, 1 mM EDTA, 1% NP-40, 0.5% sodium deoxycholate, and 0.1% SDS, pH 7.4, 150 mM NaCl, 1 mM Na3VO4) was added to the cell pellet to lyse the cells on ice for 30 min. After spin at 12,000 rpm for 5 min., 90 μL of the cell lysate was transferred to a fresh tube.
For an enzyme-linked immunosorbent assay (ELISA) assay, 10 μL of the lysate was used for p-ERK1/2 (T202/Y204) elisa assay. ELISA was done using the ERK 1/2 (pT202/Y204 +Total) ELISA Kit (Abcam, ab176660) according to the manufacturer's instructions. Specifically, add 50 μL of all samples or standards to appropriate wells. Add 50 μL of the Antibody Cocktail to each well. Seal the plate and incubate for 1 hr. at r.t. on a plate shaker set to 400 rpm. Wash each well with 3×350 μL 1× Wash Buffer PT. […] This is an endpoint reading.

[7] = target: BMX (Homo sapiens (Human), UniProt P51813); assay: 33P ATP HotSpot kinase assay, BMX; format: biochemical; conditions: 10 μM ATP
BMX, sequence (P51813 whole entry): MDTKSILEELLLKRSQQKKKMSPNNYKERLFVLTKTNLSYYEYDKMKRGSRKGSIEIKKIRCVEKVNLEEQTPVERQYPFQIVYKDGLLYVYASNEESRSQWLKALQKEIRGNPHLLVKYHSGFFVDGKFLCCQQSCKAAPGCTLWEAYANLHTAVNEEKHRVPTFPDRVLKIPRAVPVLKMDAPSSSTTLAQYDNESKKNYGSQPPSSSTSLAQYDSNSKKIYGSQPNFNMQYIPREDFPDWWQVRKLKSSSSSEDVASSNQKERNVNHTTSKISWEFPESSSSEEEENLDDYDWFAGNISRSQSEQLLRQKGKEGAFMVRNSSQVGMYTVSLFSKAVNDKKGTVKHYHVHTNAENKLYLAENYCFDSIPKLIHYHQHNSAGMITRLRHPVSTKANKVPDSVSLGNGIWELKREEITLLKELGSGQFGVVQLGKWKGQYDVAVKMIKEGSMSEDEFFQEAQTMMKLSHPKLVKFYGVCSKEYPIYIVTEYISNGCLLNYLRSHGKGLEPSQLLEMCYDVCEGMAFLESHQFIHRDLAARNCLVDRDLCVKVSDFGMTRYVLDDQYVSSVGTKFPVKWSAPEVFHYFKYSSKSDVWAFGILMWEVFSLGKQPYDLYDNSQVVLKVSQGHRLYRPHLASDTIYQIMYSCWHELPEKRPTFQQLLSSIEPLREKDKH
Description: (§6) (See, e.g., Ma, et al, 2008 Expert Opin Drug Discov. 3(6): 607-621.)
(§7) Each of Compound-1 to Compound-24 was measured for its inhibitory activity on TEC family kinases, BMX and ITK. The measurement was carried out in the same process as described above, BMX, ITK enzymes were used.

[8] = target: ERK1 kinase (Homo sapiens (Human), UniProt P27361); assay: 33P ATP HotSpot kinase assay, ERK1; format: biochemical; conditions: 10 μM ATP
ERK1 kinase, sequence (P27361 whole entry): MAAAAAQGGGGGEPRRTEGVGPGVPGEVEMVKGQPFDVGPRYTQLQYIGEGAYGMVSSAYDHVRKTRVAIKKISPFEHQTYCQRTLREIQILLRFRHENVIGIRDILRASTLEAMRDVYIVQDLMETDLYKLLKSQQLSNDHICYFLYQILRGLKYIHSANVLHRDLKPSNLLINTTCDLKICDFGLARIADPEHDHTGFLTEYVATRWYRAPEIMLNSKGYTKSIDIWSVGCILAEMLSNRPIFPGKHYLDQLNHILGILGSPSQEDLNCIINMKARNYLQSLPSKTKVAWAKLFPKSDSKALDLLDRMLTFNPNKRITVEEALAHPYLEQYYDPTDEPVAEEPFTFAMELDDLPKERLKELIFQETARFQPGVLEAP
Description: as §6
Certain compounds of Compound-1 to Compound-24 were measured for its inhibitory activity on ERK1 kinase. The measurement was carried out in the same process as described above, ERK enzyme was used.

[9] = target: BTK wt (Homo sapiens (Human), UniProt Q06187); assay: 33P ATP HotSpot kinase assay, BTK wt; format: biochemical; conditions: 10 μM ATP
BTK wt, sequence (Q06187 whole entry): as the sequence (Q06187 whole entry) above
Source text: as §6

[10] = target: ITK (Homo sapiens (Human), UniProt Q08881); assay: 33P ATP HotSpot kinase assay, ITK; format: biochemical; conditions: 10 μM ATP
ITK, sequence (Q08881 whole entry): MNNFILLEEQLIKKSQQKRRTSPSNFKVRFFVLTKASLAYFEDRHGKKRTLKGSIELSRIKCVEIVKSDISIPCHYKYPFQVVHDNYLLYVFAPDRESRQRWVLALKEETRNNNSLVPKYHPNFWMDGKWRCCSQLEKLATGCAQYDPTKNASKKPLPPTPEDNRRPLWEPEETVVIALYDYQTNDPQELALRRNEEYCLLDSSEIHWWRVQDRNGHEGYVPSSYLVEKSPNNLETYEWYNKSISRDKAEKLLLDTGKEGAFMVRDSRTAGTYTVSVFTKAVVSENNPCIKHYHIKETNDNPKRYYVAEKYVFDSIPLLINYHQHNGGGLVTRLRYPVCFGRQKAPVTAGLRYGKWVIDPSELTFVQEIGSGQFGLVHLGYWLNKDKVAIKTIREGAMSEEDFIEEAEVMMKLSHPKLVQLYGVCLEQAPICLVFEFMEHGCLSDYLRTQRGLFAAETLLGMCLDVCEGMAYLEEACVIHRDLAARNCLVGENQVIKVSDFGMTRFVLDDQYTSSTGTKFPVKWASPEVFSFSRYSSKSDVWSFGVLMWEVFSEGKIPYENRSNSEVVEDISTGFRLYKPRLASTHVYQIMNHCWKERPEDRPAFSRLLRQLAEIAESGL
Description: as §6, §7

[11] = target: FAK phosphorylation at tyrosine 397 (Homo sapiens (Human), UniProt Q05397); assay: Cell-based FAK(Y397) phosphorylation ELISA in PC3 cells; conditions: 1 hr treatment, read-out: EC50 phospho-FAK(Y397)
FAK phosphorylation at tyrosine 397, sequence (Q05397 whole entry): as the sequence (Q05397 whole entry) above
Description: After aspirating the supernatant, 100 μL of RIPA lysis buffer (50 mM Tris-HCl, 1 mM EDTA, 1% NP-40, 0.5% sodium deoxycholate, and 0.1% SDS, pH 7.4, 150 mM NaCl, 1 mM Na3VO4) was added to the cell pellet to lyse the cells on ice for 30 min. After spin at 12,000 rpm for 5 min., 90 μL of the cell lysate was transferred to a fresh tube.
For an enzyme-linked immunosorbent assay (ELISA) assay, 10 μL of the lysate was used for p-FAK(Y397) elisa assay. ELISA was done using the FAK [pY397] Phospho-ELISA Kit (ThermoFisher Scientific, KHO0441) according to the manufacturer's instructions. […] During the first incubation, 50 μL standards of known p-FAK (Y397) content and compound treated samples (10 μL lysate) plus 40 μL diluent buffer were pipetted into the wells and let the p-FAK antigen standards and samples bind to the immobilized (capture) antibody on the plate, a rabbit antibody specific for p-FAK (Y397) 50 μL/well was added to the wells, this antibody serves as a detection antibody by binding to the p-FAK protein during a 3 hr. incubation at room temperature. After washing 4 times, a horseradish peroxidase labeled anti-rabbit IgG was added. This binds to the detection antibody. After a 30 min. incubation and washing to remove all the unbound enzyme, a substrate solution (TMB) was added, which was acted upon by the bound enzyme to produce color.

| SMILES | IC50 [1] [µM] | IC50 [2] [µM] | EC50 [3] [µM] | IC50 [4] [µM] | IC50 [5] [µM] | EC50 [6] [µM] | IC50 [7] [µM] | IC50 [8] [µM] | IC50 [9] [µM] | IC50 [10] [µM] | EC50 [11] [µM] |
| --- | --- | --- | --- | --- | --- | --- | --- | --- | --- | --- | --- |
| CCC(=O)Nc1ccccc1Nc1nc(Nc2ccc3c(c2)OCCOCCOCCO3)nc2[nH]cnc12 [Compound-12, N-[2-[[2-(2,5,8,11-tetraoxabicyclo[10.4.0]hexadeca-1(12),13,15-trien-14-ylamino)-9H-purin-6-yl]amino]phenyl]propanamide] | 2.4 | > 3 | 0.1 to 1 | > 1 | 0.0246 | 1 to 3 | 0.0027 | 0.714 | 0.00436 | 0.447 | – |
| CN([C@@H]1CCC[C@H]1Oc1nc(Nc2ccc3c(c2)OCCOCCOCCO3)nc2[nH]ncc12)S(C)(=O)=O [Compound-19, N-methyl-N-[(1R,2R)-2-[[6-(2,5,8,11-tetraoxabicyclo[10.4.0]hexadeca-1(16),12,14-trien-14-ylamino)-1H-pyrazolo[3,4-d]pyrimidin-4-yl]oxy]cyclopentyl]methanesulfonamide] | 0.35 | 2.5 | – | > 1 | 0.0135 | – | – | – | 0.0682 | – | 0.1 to 1 |
| CN(c1cnccc1CNc1nc(Nc2ccc3c(c2)OCCOCCOCCO3)nc2[nH]ccc12)S(C)(=O)=O [Compound-20, N-methyl-N-[4-[[[2-(2,5,8,11-tetraoxabicyclo[10.4.0]hexadeca-1(16),12,14-trien-14-ylamino)-7H-pyrrolo[2,3-d]pyrimidin-4-yl]amino]methyl]-3-pyridyl]methanesulfonamide] | 2.25 | > 3 | – | > 1 | 0.0294 | – | – | – | > 1 | – | 0.1 to 1 |
| C=CC(=O)Nc1cccc(Nc2nc(Nc3ccc4c(c3)OCCOCCOCCO4)nc3[nH]cnc23)c1 [Compound-7, N-[3-[[2-(2,5,8,11-tetraoxabicyclo[10.4.0]hexadeca-1(12),13,15-trien-14-ylamino)-9H-purin-6-yl]amino]phenyl]prop-2-enamide] | 2.5 | > 3 | < 0.1 | 0.208 | 0.274 | – | 0.00041 | – | 0.00065 | 0.00135 | – |
| C=CC(=O)N1CCC[C@@H](Nc2nc(Nc3ccc4c(c3)OCCOCCOCCO4)ncc2F)C1 [Compound-2, 1-[(3R)-3-[[5-fluoro-2-(2,5,8,11-tetraoxabicyclo[10.4.0]hexadeca-1(12),13,15-trien-14-ylamino)pyrimidin-4-yl]amino]-1-piperidyl]prop-2-en-1-one] | 2 | > 3 | 0.1 to 1 | > 1 | > 1 | – | 0.00846 | – | 0.0734 | > 1 | – |
| C=CC(=O)N1CCC[C@@H](Nc2nc(Nc3ccc4c(c3)OCCOCCOCCO4)nc3[nH]cnc23)C1 [Compound-3, 1-[(3R)-3-[[2-(2,5,8,11-tetraoxabicyclo[10.4.0]hexadeca-1(12),13,15-trien-14-ylamino)-9H-purin-6-yl]amino]-1-piperidyl]prop-2-en-1-one] | > 3 | > 3 | < 0.1 | 0.345 | 1.24 | – | 0.00169 | – | 0.00317 | 0.0396 | – |
| C=CC(=O)Nc1cccc(Nc2nc(Nc3ccc(OCCCOC4(CC)OCC(C)(C)CO4)cc3)ncc2F)c1 [Compound-5, N-[3-[[2-[4-[3-[(2-ethyl-5,5-dimethyl-1,3-dioxan-2yl)oxy]propoxy]anilino]-5-fluoro-pyrimidin-4-yl]amino]phenyl]prop-2-enamide] | 1.9 | 3 | < 0.1 | > 0.1 | > 0.1 | – | < 0.1 | – | < 0.1 | < 0.1 | – |
| CCC(=O)Nc1cccc(Nc2nc(Nc3ccc4c(c3)OCCOCCOCCO4)nc3[nH]cnc23)c1 [Compound-8, N-[3-[[2-(2,5,8,11-tetraoxabicyclo[10.4.0]hexadeca-1(12),13,15-trien-14-ylamino)-9H-purin-6-yl]amino]phenyl]propanamide] | – | – | 0.1 to 1 | > 1 | 1.13 | – | 0.0464 | – | 0.0888 | 1.29 | – |
